Data as given in patent US8748466B2, “Isoxazole derivatives useful as antibacterial agents” (Pfizer Inc., priority 2011, dated 2014).
Converted amounts (≈) assume the structure as drawn. Like-named read-outs stand apart in the source and are kept apart here.

Columns and labels:
[1] = system: Escherichia coli EC-1: VOGEL, mouse virulent; assay: MIC determination (CLSI), EC-1; type: cell-based; details: read-out: EC-1 MIC
Experimental: (§1) The in vitro antibacterial activity of compounds described in the Examples was evaluated by minimum inhibitory concentration (MIC) testing according to Clinical and Laboratory Standards Institute (CLSI). See: Clinical and Laboratory Standards Institute. Methods for Dilution Antimicrobial Susceptibility Tests for Bacteria that Grow Aerobically; Approved Standard-Eighth Edition. CLSI document M7-A8 [ISBN 1-56238-689-1]. Clinical and Laboratory Standards Institute, 940 West Valley Road, Suite 1400, Wayne, Pa. 19087-1898 USA, 2006; also Clinical and Laboratory Standards Institute. Performance Standards for Antimicrobial Susceptibility Testing; Twentieth Informational Supplement. CLSI document M100-S20 [ISBN1-56238-716-2]. Clinical and Laboratory Standards Institute.
(§2) The MIC determination is a standard laboratory method for evaluating the antibacterial activity of a compound. The MIC represents the lowest drug concentration that inhibits visible growth of bacteria following overnight incubation. […] Typically, the drug concentration range is broken down into 2-fold increments (e.g., 0.06 μg/mL, 0.12 μg/mL. 0.25 μg/mL, 0.50 μg/mL, 1.0 μg/mL, etc.) and the various drug concentrations are all individually incubated overnight with approximately the same number of bacteria. The MIC is then determined by visually inspecting the drug effect at each concentration, and identifying the lowest drug concentration that has inhibited bacterial growth as compared to the drug free control. Typically, bacteria continue to grow at drug concentrations lower than the MIC and don't grow at concentrations at and above the MIC.
(§3) The MIC values described in Tables 4 and 5 below were derived from assays wherein each test compound was evaluated in duplicate. In cases where the duplicate values varied by 0-2-fold, the lower of the two values was reported below. Generally speaking, if the duplicate values varied by more than 2-fold, the assay was considered non-valid and was repeated until the variation between duplicate runs was 2-fold. In line with the CLSI guidelines referred to above, both control organisms and reference compounds were utilized in each MIC assay to provide proper quality control. MIC values generated with these control organisms and reference compounds were required to fall within a defined range for the assay to be considered valid and be included herein. Those skilled in the art will recognize that MIC values can and do vary from experiment to experiment. Generally speaking, it should be recognized that MIC values often vary +/−2-fold from experiment to experiment. While a single MIC is reported for each compound and each microorganism, the reader should not conclude that each compound was only tested once. Several of the compounds were subjected to multiple tests. The data reported in Tables 4 and 5 is reflective of the compound's relative activity and different MICs may have been generated on these occasions in line with the guidelines described above.
(§4) The following bacterial strains were used in these MIC determinations:
2) Escherichia coli EC-1: VOGEL, mouse virulent labeled as EC-1 in Tables 4 and 5;

[2] = system: Acinetobacter baumannii/haemolyticus: Multidrug-resistant clinical isolate AB-3167; assay: MIC determination (CLSI), AB-3167; type: cell-based; details: overnight incubation, duplicate, lower of the two values reported
Experimental: as §1, §2, §3, §4
3) Acinetobacter baumannii/haemolyticus: Multidrug-resistant clinical isolate labeled as AB-3167 in Tables 4 and 5;

[3] = system: Pseudomonas aeruginosa UC12120 (mouse virulent); assay: MIC determination (CLSI), PA-UC12120; type: cell-based; details: UC12120, read-out: PA-UC12120 MIC
Experimental: as §1, §2, §3, §4
1) Pseudomonas aeruginosa UC12120 (mouse virulent) labeled as PA-UC12120 in Tables 4 and 5;

[4] = molecular target: T1, Pseudomonas aeruginosa LpxC enzyme (Pseudomonas aeruginosa, UniProt P47205); assay: LpxC enzyme IC50 assay (PA LpxC enzyme IC50), BioTrove RapidFire mass spectrometry; type: biochemical
T1 construct: made in house; host or cells: E. coli
T1 sequence (P47205 1-303): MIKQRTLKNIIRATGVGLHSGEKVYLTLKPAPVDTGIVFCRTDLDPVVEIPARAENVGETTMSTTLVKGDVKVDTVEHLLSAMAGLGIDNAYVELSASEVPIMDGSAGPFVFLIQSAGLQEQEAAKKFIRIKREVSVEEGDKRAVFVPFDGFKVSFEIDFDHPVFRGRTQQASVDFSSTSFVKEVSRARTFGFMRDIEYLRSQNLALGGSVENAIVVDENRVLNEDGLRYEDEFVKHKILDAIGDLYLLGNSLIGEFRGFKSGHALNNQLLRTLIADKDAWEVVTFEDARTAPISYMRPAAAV
Experimental: In order to assess the compounds biological activity selected in vitro assays were conducted on selected compounds. One of the assays measured the compounds ability to disrupt the synthesis of lipopolysaccharide, LPS, which is a component of the outer membrane of Gram-negative bacteria. Disruption of this synthesis is lethal to the bacteria. The assay determined the compound's ability to inhibit LpxC, which is the first enzyme in the biosynthetic pathway for LPS (measured as IC50). Additionally, MICs (minimal inhibitory concentrations) were determined for several bacteria. The specific protocols are described below:
A) IC50 Assay LpxC Enzyme from P. aeruginosa Labeled as PA LpxC Enzyme IC50):
At the end of 1 hour, 5 ul of 1 N HCl was added to stop the enzyme reaction, the plates were centrifuged, and then processed with the BioTrove Rapidfire HTMS Mass Spectrometry System. A no-enzyme control was used in calculating the IC50 values from the percent conversion values.

[5] = P. aeruginosa LpxC enzyme 0.1 nM, 25° C., 1 hour, pH 8.0, read-out: PA:IC50

CCc1ccc(-c2cc(CCC(C)(C(=O)NO)S(C)(=O)=O)on2)s1 (racemic) [Example 7, 4-[3-(5-ethyl-2-thienyl)isoxazol-5-yl]-N-hydroxy-2-methyl-2-(methylsulfonyl)butanamide]
MIC [1]: 4 µg/mL (≈ 10.7 µM)
MIC [2]: 64 µg/mL (≈ 172 µM)
MIC [3]: 0.5 µg/mL (≈ 1.34 µM)
IC50 [4, 5]: 1.1 nM

CC(CCc1cc(-c2ccccc2F)on1)(C(=O)NO)S(C)(=O)=O (racemic) [Example 8, 4-[5-(2-fluorophenyl)isoxazol-3-yl]-N-hydroxy-2-methyl-2-(methylsulfonyl)butanamide]
MIC [1]: 16 µg/mL (≈ 44.9 µM)
MIC [2]: > 64 µg/mL
MIC [3]: 1 µg/mL (≈ 2.81 µM)
IC50 [4]: 8.3 nM

CC(CCc1cc(COCc2ccccc2)on1)(C(=O)NO)S(C)(=O)=O (racemic) [Example 9, 4-{5-[(benzyloxy)methyl]isoxazol-3-yl}-N-hydroxy-2-methyl-2-(methylsulfonyl)butanamide]
MIC [1]: > 64 µg/mL
MIC [2]: > 64 µg/mL
MIC [3]: 8 µg/mL (≈ 20.9 µM)
IC50 [4, 5]: 25.1 nM

CC(CCc1cc(-c2c(Cl)cccc2Cl)on1)(C(=O)NO)S(C)(=O)=O (racemic) [Example 10, 4-[5-(2,6-dichlorophenyl)isoxazol-3-yl]-N-hydroxy-2-methyl-2-(methylsulfonyl)butanamide]
MIC [1]: 8 µg/mL (≈ 19.6 µM)
MIC [2]: > 64 µg/mL
MIC [3]: 64 µg/mL (≈ 157 µM)
IC50 [4, 5]: 10.5 nM

COc1ccc(C(=O)NCc2cc(CCC(C)(C(=O)NO)S(C)(=O)=O)no2)cc1 (racemic) [Example 11, N-({3-[4-(hydroxyamino)-3-methyl-3-(methylsulfonyl)-4-oxobutyl]isoxazol-5-yl}methyl)-4-methoxybenzamide]
MIC [1]: > 64 µg/mL
MIC [2]: > 64 µg/mL
MIC [3]: > 64 µg/mL

COc1ccccc1OCc1cc(CCC(C)(C(=O)NO)S(C)(=O)=O)no1 (racemic) [Example 12, N-hydroxy-4-{5-[(2-methoxyphenoxy)methyl]isoxazol-3-yl}-2-methyl-2-(methylsulfonyl)butanamide]
MIC [1]: > 64 µg/mL
MIC [2]: > 64 µg/mL
MIC [3]: > 64 µg/mL
IC50 [4, 5]: 37.4 nM

Cc1cccc(-c2cc(CCC(C)(C(=O)NO)S(C)(=O)=O)no2)c1 (racemic) [Example 13, N-hydroxy-2-methyl-4-[5-(3-methylphenyl)isoxazol-3-yl]-2-(methylsulfonyl)butanamide]
MIC [1]: 32 µg/mL (≈ 90.8 µM)
MIC [2]: 64 µg/mL (≈ 182 µM)
MIC [3]: 1 µg/mL (≈ 2.84 µM)

CCCCSC(=O)N(C)Cc1cc(CCC(C)(C(=O)NO)S(C)(=O)=O)no1 (racemic) [Example 14, S-butyl ({3-[4-(hydroxyamino)-3-methyl-3-(methylsulfonyl)-4-oxobutyl]isoxazol-5-yl}methyl)methylthiocarbamate]
MIC [1]: > 64 µg/mL
MIC [2]: > 64 µg/mL
MIC [3]: > 64 µg/mL
IC50 [4, 5]: > 100 nM

CC(CCc1cc(CCCCCCCCCO)on1)(C(=O)NO)S(C)(=O)=O (racemic) [Example 15, N-hydroxy-4-[5-(9-hydroxynonyl)isoxazol-3-yl]-2-methyl-2-(methylsulfonyl)butanamide]
MIC [1]: 16 µg/mL (≈ 39.6 µM)
MIC [2]: > 64 µg/mL
MIC [3]: 4 µg/mL (≈ 9.89 µM)

CC(CCc1cc(CN(CCOc2ccccc2)C2CC2)on1)(C(=O)NO)S(C)(=O)=O (racemic) [Example 18, 4-(5-{[cyclopropyl(2-phenoxyethyl)amino]methyl}isoxazol-3-yl)-N-hydroxy-2-methyl-2-(methylsulfonyl)butanamide]
MIC [1]: > 64 µg/mL
MIC [2]: > 64 µg/mL
MIC [3]: > 64 µg/mL

COc1ccccc1SCc1cc(CCC(C)(C(=O)NO)S(C)(=O)=O)no1 (racemic) [Example 19, N-hydroxy-4-(5-{[(2-methoxyphenyl)thio]methyl}isoxazol-3-yl)-2-methyl-2-(methylsulfonyl)butanamide]
MIC [1]: > 64 µg/mL
MIC [2]: > 64 µg/mL
MIC [3]: 64 µg/mL (≈ 154 µM)

CC(CCc1cc(-c2ccc(Cl)c(Cl)c2)on1)(C(=O)NO)S(C)(=O)=O (racemic) [Example 20, 4-[5-(3,4-dichlorophenyl)isoxazol-3-yl]-N-hydroxy-2-methyl-2-(methylsulfonyl)butanamide]
MIC [1]: 4 µg/mL (≈ 9.82 µM)
MIC [2]: 16 µg/mL (≈ 39.3 µM)
MIC [3]: 1 µg/mL (≈ 2.46 µM)

CC(CCc1cc(COc2ccc3c(c2)OCO3)on1)(C(=O)NO)S(C)(=O)=O (racemic) [Example 26, 4-{5-[(1,3-benzodioxol-5-yloxy)methyl]isoxazol-3-yl}-N-hydroxy-2-methyl-2-(methylsulfonyl)butanamide]
MIC [1]: 16 µg/mL (≈ 38.8 µM)
MIC [2]: > 64 µg/mL
MIC [3]: 4 µg/mL (≈ 9.7 µM)

CC(CCc1cc(-c2ccc(F)cc2F)on1)(C(=O)NO)S(C)(=O)=O (racemic) [Example 28, 4-[5-(2,4-difluorophenyl)isoxazol-3-yl]-N-hydroxy-2-methyl-2-(methylsulfonyl)butanamide]
IC50 [4, 5]: 2.8 nM

COc1cccc(-c2cc(CCC(C)(C(=O)NO)S(C)(=O)=O)no2)c1 (racemic) [Example 29, N-hydroxy-4-[5-(3-methoxyphenyl)isoxazol-3-yl]-2-methyl-2-(methylsulfonyl)butanamide]
MIC [1]: 64 µg/mL (≈ 174 µM)
MIC [2]: > 64 µg/mL
MIC [3]: 8 µg/mL (≈ 21.7 µM)

CC(CCc1cc(-c2cnc3ccccc3c2)no1)(C(=O)NO)S(C)(=O)=O (racemic) [Example 40, N-hydroxy-2-methyl-2-(methylsulfonyl)-4-(3-quinolin-3-ylisoxazol-5-yl)butanamide]
IC50 [4, 5]: 25.2 nM

CC(CCc1cc(C(=O)NC2CCCCC2)no1)(C(=O)NO)S(C)(=O)=O (racemic) [Example 45, N-cyclohexyl-5-[4-(hydroxyamino)-3-methyl-3-(methylsulfonyl)-4-oxobutyl]isoxazole-3-carboxamide]
MIC [1]: > 64 µg/mL
MIC [2]: > 64 µg/mL
MIC [3]: > 64 µg/mL

CC(CCc1cc(-c2ccnc3ccccc23)no1)(C(=O)NO)S(C)(=O)=O (racemic) [Example 46, N-hydroxy-2-methyl-2-(methylsulfonyl)-4-(3-quinolin-4-ylisoxazol-5-yl)butanamide]
IC50 [4, 5]: 5.4 nM

CC(CCc1cc(-c2ccc(F)cc2F)no1)(C(=O)NO)S(C)(=O)=O (racemic) [Example 50, 4-[3-(2,4-difluorophenyl)isoxazol-5-yl]-N-hydroxy-2-methyl-2-(methylsulfonyl)butanamide]
MIC [1]: 16 µg/mL (≈ 42.7 µM)
MIC [2]: > 64 µg/mL
MIC [3]: 1 µg/mL (≈ 2.67 µM)

COc1cccc(-c2cc(CC[C@](C)(C(=O)NO)S(C)(=O)=O)no2)c1F [Example 2, (2R)-4-[5-(2-Fluoro-3-methoxyphenyl)isoxazol-3-yl]-N-hydroxy-2-methyl-2-(methylsulfonyl)butanamide]
MIC [1]: 16 µg/mL (≈ 41.4 µM)
MIC [2]: 32 µg/mL (≈ 82.8 µM)
MIC [3]: 16 µg/mL (≈ 41.4 µM)

COc1ccc(-c2cc(CC[C@](C)(C(=O)NO)S(C)(=O)=O)no2)c(F)c1 [Example 5, (2R)-4-[5-(2-fluoro-4-methoxyphenyl)isoxazol-3-yl]-N-hydroxy-2-methyl-2-(methylsulfonyl)butanamide]
MIC [1]: 4 µg/mL (≈ 10.4 µM)
MIC [2]: > 64 µg/mL
MIC [3]: 0.25 µg/mL (≈ 0.647 µM)
